Assays:
Format in all cases: in vivo, human
[1] = Cooling intensity: panelists taste aqueous solutions, compared with menthol at 2 ppm; settings: tasted by small group of panelists
[2] = Application in toothpaste: cooling perception after brushing; settings: for Cooling sensation felt by the panelist in all areas of the mouth: opaque toothgel with 0.50 g peppermint oil and 0.30 g saccharin, teeth brushed, mouth rinsed; for Cooling sensation felt by the panelist in all areas of the mouth / Duration of cooling perception: test compound 0.05 g per 100 g; for Cooling perception rating versus control: toothgel with 0.05 g compound plus 0.50 g peppermint oil versus peppermint oil control; for Duration of cooling perception: toothgel, 0.50 g peppermint oil
Procedure: The chemicals are mixed in the toothgel, a piece of toothgel is put on a toothbrush and a panelist's teeth are brushed. The mouth is rinsed with water and the water is spat out. […] The cooling perception lasts for 40 minutes.
The chemicals are mixed in the toothgel, a piece of toothgel is put on a toothbrush and a panelist's teeth are brushed. The mouth is rinsed with water and the water is spat out.

[3] = Application in chewing gum: cooling perception after chewing; settings: for Cooling perception rated higher than the control: chewing gum with 0.05 g compound plus 0.50 g peppermint oil versus peppermint oil control; for Cooling sensation felt by the panelist in all areas of the mouth: chewing gum with 0.50 g peppermint oil; for Cooling sensation felt by the panelist in all areas of the mouth / Duration of cooling perception: test compound 0.05 g, 2 g piece chewed 20 min; for Duration of cooling perception: chewing gum, 0.50 g peppermint oil
Procedure: The gum base and half of the sorbitol were mixed, maltitol syrup was added and the mixed with the gum mass. The rest of powder (rest of sorbitol, mannitol, potassium acesulfame, aspartame) were added and mixed for about 1 minute, when glycerine was added and the gum mass was mix for about 5 minutes, to form the blank chewing gum mass. Peppermint oil was worked into the mass and a piece of the resulting gum (2 g) is chewed by the panelist for 20 min and spat out. […] The cooling perception lasts for 50 minutes.
The chemical and peppermint oil was worked into the blank chewing gum mass from Example 12 a) and a piece of the resulting gum (2 g) is chewed by the panelist for 20 minutes and spat out.
The chemical and peppermint oil was worked into the blank chewing gum mass from Example 12a) and a piece of the resulting gum (2 g) is chewed by the panelist for 20 minutes and spat out.

| Structure (SMILES) | Concentration with cooling intensity similar to or slightly higher than a solution of menthol at 2 ppm [1] [ppm] | Cooling sensation felt by the panelist in all areas of the mouth [2] | Cooling perception rating versus control [2] | Duration of cooling perception [2] [min] | Cooling perception rated higher than the control [3] [%] | Cooling sensation felt by the panelist in all areas of the mouth [3] | Duration of cooling perception [3] |
| --- | --- | --- | --- | --- | --- | --- | --- |
| CC(C)C(C)(C(=O)CCCc1ccccc1)C(C)C [Example 4, 5-isopropyl-5,6-dimethyl-1-phenylheptan-4-one] | 3.0 |  |  |  |  |  |  |
| CC(C)[C@@H]1CC[C@@H](C)C[C@H]1O [l-Menthol, reference compound] | 2.0 |  |  |  |  |  |  |
| CCNC(=O)C1CC(C)CCC1C(C)C (stereo not drawn) [WS-3, N-ethyl p-menthanecarboxamide, reference compound] | 1.5 |  |  |  |  |  |  |
| CCCC(=O)[C@@H]1C[C@H](C)CC[C@H]1C(C)C [Example 1, 1-((1R,2S,5R)-2-isopropyl-5-methylcyclohexyl)butan-1-one] | 2.0 | intense cooling sensation | higher then the control | 72 | 49 | cooling sensation | over 60 minutes |
| CC(C)[C@@H]1CC[C@@H](C)C[C@H]1C(=O)CCCc1ccccc1 [Example 2, 1-((1R,2S,5R)-2-isopropyl-5-methylcyclohexyl)-4-phenylbutan-1-one] | 2.0 | intense cooling sensation | higher then the control | 70 | 49 | cooling sensation | over 60 minutes |
| CC(C)[C@@H]1CC[C@@H](C)C[C@H]1C(=O)CCCc1ccccn1 [Example 3, 1-((1R,2S,5R)-2-isopropyl-5-methylcyclohexyl)-4-(pyridin-2-yl)butan-1-one] | 0.01 |  |  |  |  |  |  |
